≈ marks a conversion by molar mass, not a printed value. Calls of active or inactive are those of the source. No cut-off for these calls is given here. Where a SMILES comes first, the peptide text is derived from it.
Columns and labels:
[1] = system: Escherichia coli; assay: Antibacterial activity against Escherichia coli ATCC 25922 after 18 hrs by CLSI based broth microdilution method; assay type: functional; conditions: ATCC 25922, 18 h
[2] = system: Escherichia coli; assay: Antibacterial activity against Escherichia coli ATCC 43837 after 18 hrs by CLSI based broth microdilution method; assay type: functional; conditions: ATCC 43837, 18 h
[3] = system: Klebsiella pneumoniae; assay: Antibacterial activity against Klebsiella pneumoniae ATCC 700603 after 18 hrs by CLSI based broth microdilution method; assay type: functional; conditions: Klebsiella pneumoniae, 700603, 18 h
[4] = system: Pseudomonas aeruginosa; assay: Antibacterial activity against Pseudomonas aeruginosa ATCC 27853 after 18 hrs by CLSI based broth microdilution method; assay type: functional; conditions: ATCC 27853, 18 h
[5] = system: Staphylococcus aureus; assay: Antibacterial activity against Staphylococcus aureus ATCC 25923 after 18 hrs by CLSI based broth microdilution method; assay type: functional; conditions: ATCC 25923, 18 h
[6] = system: Staphylococcus aureus; assay: Antibacterial activity against methicillin-resistant Staphylococcus aureus 936 after 18 hrs by CLSI based broth microdilution method; assay type: functional; conditions: Staphylococcus aureus, 936, 18 h
[7] = system: Bacillus subtilis; assay: Antibacterial activity against Bacillus subtilis ATCC 23857 after 18 hrs by CLSI based broth microdilution method; assay type: functional; conditions: ATCC 23857, 18 h
[8] = system: Escherichia coli; assay: Ratio of MIC for antibacterial activity against Escherichia coli ATCC 25922 after 15 passages to MIC for antibacterial activity against Escherichia coli ATCC 25922 incubated for 18 hrs; assay type: functional
[9] = system: Escherichia coli; assay: Antibacterial activity against Escherichia coli ATCC 25922 at 0.5 times MIC incubated for 18 hrs measured at 1 passages by CLSI based broth microdilution method; assay type: functional, organism-based
[10] = system: Erythrocyte; assay: Hemolytic activity in human RBC measured after 1 hr by microplate reader analysis; assay type: ADME, cell-based
[11] = Selectivity index, ratio of MHC10 for human RBC to geometric mean of peptide MIC for gram positive bacteria; assay type: toxicity; conditions: human red blood cells, read-out: Selectivity Index
[12] = Selectivity index, ratio of MHC10 for human RBC to geometric mean of peptide MIC for gram negative bacteria; assay type: toxicity; conditions: human red blood cells, read-out: Selectivity Index
[13] = system: Escherichia coli; assay: Antibacterial activity against Escherichia coli ATCC 25922 after 18 hrs in presence of NaCl by CLSI based broth microdilution method (reference value: 64 microM); assay type: functional; conditions: ATCC 25922, 18 h
[14] = system: Escherichia coli; assay: Antibacterial activity against Escherichia coli ATCC 25922 after 18 hrs in presence of KCl by CLSI based broth microdilution method (reference value: 64 microM); assay type: functional; conditions: ATCC 25922, 18 h
[15] = system: Escherichia coli; assay: Antibacterial activity against Escherichia coli ATCC 25922 after 18 hrs in presence of MgCl2 by CLSI based broth microdilution method (reference value: 64 microM); assay type: functional; conditions: ATCC 25922, 18 h
[16] = system: Escherichia coli; assay: Antibacterial activity against Escherichia coli ATCC 25922 after 18 hrs in presence of FeCl3 by CLSI based broth microdilution method (reference value: 64 microM); assay type: functional; conditions: ATCC 25922, 18 h
[17] = system: Staphylococcus aureus; assay: Antibacterial activity against Staphylococcus aureus ATCC 25923 after 18 hrs in presence of NaCl by CLSI based broth microdilution method (reference value: 64 microM); assay type: functional; conditions: ATCC 25923, 18 h
[18] = system: Staphylococcus aureus; assay: Antibacterial activity against Staphylococcus aureus ATCC 25923 after 18 hrs in presence of KCl by CLSI based broth microdilution method (reference value: 64 microM); assay type: functional; conditions: ATCC 25923, 18 h
[19] = system: Staphylococcus aureus; assay: Antibacterial activity against Staphylococcus aureus ATCC 25923 after 18 hrs in presence of MgCl2 by CLSI based broth microdilution method (reference value: 64 microM); assay type: functional; conditions: ATCC 25923, 18 h
[20] = system: Staphylococcus aureus; assay: Antibacterial activity against Staphylococcus aureus ATCC 25923 after 18 hrs in presence of FeCl3 by CLSI based broth microdilution method (reference value: 64 microM); assay type: functional; conditions: ATCC 25923, 18 h
[21] = system: Escherichia coli; assay: Potentiation of polymyxin B-induced antibacterial activity against Escherichia coli ATCC 25922 assessed as FICI after 18 hrs by checker board assay; assay type: functional
[22] = system: Klebsiella pneumoniae; assay: Potentiation of polymyxin B-induced antibacterial activity against Klebsiella pneumoniae ATCC 700603 assessed as FICI after 18 hrs by checker board assay; assay type: functional
[23] = system: Pseudomonas aeruginosa; assay: Potentiation of polymyxin B-induced antibacterial activity against Pseudomonas aeruginosa ATCC 27853 assessed as FICI after 18 hrs by checker board assay; assay type: functional
[24] = system: Escherichia coli; assay: Potentiation of rifampicin-induced antibacterial activity against Escherichia coli ATCC 25922 assessed as FICI after 18 hrs by checker board assay; assay type: functional
[25] = system: Klebsiella pneumoniae; assay: Potentiation of rifampicin-induced antibacterial activity against Klebsiella pneumoniae ATCC 700603 assessed as FICI after 18 hrs by checker board assay; assay type: functional
[26] = system: Pseudomonas aeruginosa; assay: Potentiation of rifampicin-induced antibacterial activity against Pseudomonas aeruginosa ATCC 27853 assessed as FICI after 18 hrs by checker board assay; assay type: functional
[27] = system: Escherichia coli; assay: Antimicrobial activity against Escherichia coli ATCC 25922 at 1 mM preincubated for 6 hrs in presence of 0.2 ug/ml trypsin and measured after 18 hrs by microplate reader analysis; assay type: functional, organism-based
[28] = system: Escherichia coli; assay: Antimicrobial activity against Escherichia coli ATCC 25922 at 1 mM preincubated for 6 hrs in presence of 2 ug/ml chymotrypsin and measured after 18 hrs by microplate reader analysis; assay type: functional, organism-based
[29] = system: Escherichia coli; assay: Antimicrobial activity against Escherichia coli ATCC 25922 preincubated for 1 hr in presence of 10% mouse serum and measured after 18 hrs by CLSI-based broth microdilution assay (reference value: 64 microM); assay type: functional
[30] = system: Escherichia coli; assay: Antimicrobial activity against Escherichia coli ATCC 25922 preincubated for 6 hrs in presence of 10% mouse serum and measured after 18 hrs by CLSI-based broth microdilution assay (reference value: 64 microM); assay type: functional
[31] = system: Escherichia coli; assay: Ratio of MIC for Escherichia coli ATCC 25922 preincubated for 1 hr in presence of 10% mouse serum and measured after 18 hrs to MIC for antibacterial activity against Escherichia coli ATCC 25922 after 18 hrs; assay type: functional
[32] = system: Escherichia coli; assay: Ratio of MIC for Escherichia coli ATCC 25922 preincubated for 6 hrs in presence of 10% mouse serum and measured after 18 hrs to MIC for antibacterial activity against Escherichia coli ATCC 25922 after 18 hrs; assay type: functional
[33] = system: Escherichia coli; assay: Disruption of membrane integrity in Escherichia coli ATCC 25922 assessed as membrane damage by measuring PI fluorescence at 4 times of MIC incubated for 1 hr by PI dye based flow cytometric analysis (reference value: 1.35%); assay type: functional
[34] = system: Escherichia coli; assay: Disruption of membrane integrity in Escherichia coli ATCC 25922 assessed as membrane damage by measuring PI fluorescence at 2 times of MIC incubated for 1 hr by PI dye based flow cytometric analysis (reference value: 1.35%); assay type: functional
[35] = system: Escherichia coli; assay: Induction of membrane disruption in Escherichia coli ATCC 25922 assessed as rough membrane surface at 4 times of MIC after 2 hrs by SEM analysis; assay type: functional, organism-based
[36] = system: Escherichia coli; assay: Induction of membrane disruption in Escherichia coli ATCC 25922 assessed as corrugated membrane surface at 4 times of MIC after 2 hrs by SEM analysis; assay type: functional, organism-based
[37] = system: Escherichia coli; assay: Induction of membrane disruption in Escherichia coli ATCC 25922 assessed as degeneration in membrane at 4 times of MIC after 2 hrs by SEM analysis; assay type: functional, organism-based
[38] = system: Escherichia coli; assay: Ratio of antibacterial activity against Escherichia coli ATCC 25922 in presence of NaCl to antibacterial activity against Escherichia coli ATCC 25922; assay type: functional
[39] = system: Escherichia coli; assay: Ratio of antibacterial activity against Escherichia coli ATCC 25922 in presence of KCl to antibacterial activity against Escherichia coli ATCC 25922; assay type: functional
[40] = system: Escherichia coli; assay: Ratio of antibacterial activity against Escherichia coli ATCC 25922 in presence of MgCl2 to antibacterial activity against Escherichia coli ATCC 25922; assay type: functional
[41] = system: Escherichia coli; assay: Ratio of antibacterial activity against Escherichia coli ATCC 25922 in presence of FeCl3 to antibacterial activity against Escherichia coli ATCC 25922; assay type: functional
[42] = system: Staphylococcus aureus; assay: Ratio of antibacterial activity against Staphylococcus aureus ATCC 25923 in presence of NaCl to antibacterial activity against Staphylococcus aureus ATCC 25923; assay type: functional
[43] = system: Staphylococcus aureus; assay: Ratio of antibacterial activity against Staphylococcus aureus ATCC 25923 in presence of KCl to antibacterial activity against Staphylococcus aureus ATCC 25923; assay type: functional
[44] = system: Staphylococcus aureus; assay: Ratio of antibacterial activity against Staphylococcus aureus ATCC 25923 in presence of MgCl2 to antibacterial activity against Staphylococcus aureus ATCC 25923; assay type: functional
[45] = system: Staphylococcus aureus; assay: Ratio of antibacterial activity against Staphylococcus aureus ATCC 25923 in presence of FeCl3 to antibacterial activity against Staphylococcus aureus ATCC 25923; assay type: functional
[46] = system: Staphylococcus aureus; assay: Antibiofilm activity against Staphylococcus aureus ATCC 25923 at 1 to 2 times of MIC after 24 hrs by crystal violet staining based assay; assay type: functional, organism-based
[47] = system: Escherichia coli; assay: Induction of membrane disruption in Escherichia coli ATCC 25922 assessed as fracture in membrane at 4 times of MIC after 2 hrs by SEM analysis; assay type: functional, organism-based
[48] = system: Escherichia coli; assay: Induction of ROS generation in Escherichia coli ATCC 25922; assay type: functional, organism-based

## CO[C@H]1/C=C/O[C@@]2(C)Oc3c(C)c(O)c4c(O)c(c(/C=N/N5CCN(C)CC5)c(O)c4c3C2=O)NC(=O)/C(C)=C\C=C\[C@H](C)[C@H](O)[C@@H](C)[C@@H](O)[C@@H](C)[C@H](OC(C)=O)[C@@H]1C [RIFAMPIN]
[1]
  MIC: 4 µM (≈ 3.29 µg/mL)
[2]
  MIC: 2 µM (≈ 1.65 µg/mL)
[3]
  MIC: 32 µM (≈ 26.3 µg/mL)
[4]
  MIC: 32 µM (≈ 26.3 µg/mL)
[5]
  MIC: < 1 µM
[6]
  MIC: < 1 µM
[7]
  MIC: < 1 µM
[8]
  Ratio: >32
[9]
  Activity: Active

## CC[C@H](C)[C@H](NC(=O)[C@H](CCCNC(=N)N)NC(=O)[C@H](CCCCN)NC(=O)[C@H](CC(C)C)NC(=O)[C@H](CC(C)C)NC(=O)CN)C(=O)N[C@@H](CCCCN)C(=O)N[C@H](C(=O)N[C@@H](CC(C)C)C(=O)N[C@@H](CC(C)C)C(N)=O)[C@@H](C)O [ANOPLIN] (H-GLLKRIKTLL-NH2)
[1]
  MIC: 64 µM (≈ 73.8 µg/mL)
[2]
  MIC: 8 µM (≈ 9.23 µg/mL)
[3]
  MIC: 64 µM (≈ 73.8 µg/mL)
[4]
  MIC: 16 µM (≈ 18.5 µg/mL)
[5]
  MIC: 64 µM (≈ 73.8 µg/mL)
[6]
  MIC: 64 µM (≈ 73.8 µg/mL)
[7]
  MIC: 8 µM (≈ 9.23 µg/mL)
[10]
  MHC10: > 256 µM
[11]
  selectivity ratio: 11.3
[12]
  selectivity ratio: 13.5
[13]
  MIC: 128 µM
[14]
  MIC: 32 µM
[15]
  MIC: 32 µM
[16]
  MIC: 32 µM
[17]
  MIC: > 128 µM
[18]
  MIC: 64 µM
[19]
  MIC: > 128 µM
[20]
  MIC: 128 µM
[21]
  fractional inhibitory concentration index (FICI): 0.1875
[22]
  fractional inhibitory concentration index (FICI): 0.3125
[23]
  fractional inhibitory concentration index (FICI): 0.3125
[24]
  fractional inhibitory concentration index (FICI): 0.125
[25]
  fractional inhibitory concentration index (FICI): 0.125
[26]
  fractional inhibitory concentration index (FICI): 0.1875
[27]
  Activity: inactive
[28]
  Activity: inactive
[29]
  MIC: 64 µM
[30]
  MIC: > 128 µM
[31]
  Ratio: 1
[32]
  Ratio: >2
[33]
  Activity: 62.1%
[34]
  Activity: 20.4%
[35]
  Activity: Active
[36]
  Activity: Active
[37]
  Activity: Active
[38]
  Ratio: 2 - 4
[39]
  Ratio: 2 - 4
[40]
  Ratio: 2 - 4
[41]
  Ratio: 2 - 4
[42]
  Ratio: 2 - 4
[43]
  Ratio: 2 - 4
[44]
  Ratio: 2 - 4
[45]
  Ratio: 2 - 4
[46]
  inhibition: Active
[47]
  Activity: Active
[48]
  Activity: inactive

From ChEMBL document CHEMBL4359906, “Design and synthesis of new N-terminal fatty acid modified-antimicrobial peptide analogues with potent in vitro biological activity” (Eur J Med Chem, 2019)
